Reference: PMC11464771, “Elucidation of Spartina dimethylsulfoniopropionate synthesis genes enables engineering of stress tolerant plants” (Nature Communications, 2024)

Experiments:
MMT from Hordeum vulgare = biological target: T1, MMT from Hordeum vulgare (Hordeum vulgare, UniProt Q9MBC2); test: in vitro MMT assay; format: biochemical; details: 1 mM L-methionine, 1 mM S-adenosylmethionine, Tris-HCl 20 mM pH 7.2, DTT 1 mM, 25 °C
T1 construct: gene MMT1; recombinant, probably pMALc2x (MBP fusion), E. coli
T1 sequence (Q9MBC2 1-1088): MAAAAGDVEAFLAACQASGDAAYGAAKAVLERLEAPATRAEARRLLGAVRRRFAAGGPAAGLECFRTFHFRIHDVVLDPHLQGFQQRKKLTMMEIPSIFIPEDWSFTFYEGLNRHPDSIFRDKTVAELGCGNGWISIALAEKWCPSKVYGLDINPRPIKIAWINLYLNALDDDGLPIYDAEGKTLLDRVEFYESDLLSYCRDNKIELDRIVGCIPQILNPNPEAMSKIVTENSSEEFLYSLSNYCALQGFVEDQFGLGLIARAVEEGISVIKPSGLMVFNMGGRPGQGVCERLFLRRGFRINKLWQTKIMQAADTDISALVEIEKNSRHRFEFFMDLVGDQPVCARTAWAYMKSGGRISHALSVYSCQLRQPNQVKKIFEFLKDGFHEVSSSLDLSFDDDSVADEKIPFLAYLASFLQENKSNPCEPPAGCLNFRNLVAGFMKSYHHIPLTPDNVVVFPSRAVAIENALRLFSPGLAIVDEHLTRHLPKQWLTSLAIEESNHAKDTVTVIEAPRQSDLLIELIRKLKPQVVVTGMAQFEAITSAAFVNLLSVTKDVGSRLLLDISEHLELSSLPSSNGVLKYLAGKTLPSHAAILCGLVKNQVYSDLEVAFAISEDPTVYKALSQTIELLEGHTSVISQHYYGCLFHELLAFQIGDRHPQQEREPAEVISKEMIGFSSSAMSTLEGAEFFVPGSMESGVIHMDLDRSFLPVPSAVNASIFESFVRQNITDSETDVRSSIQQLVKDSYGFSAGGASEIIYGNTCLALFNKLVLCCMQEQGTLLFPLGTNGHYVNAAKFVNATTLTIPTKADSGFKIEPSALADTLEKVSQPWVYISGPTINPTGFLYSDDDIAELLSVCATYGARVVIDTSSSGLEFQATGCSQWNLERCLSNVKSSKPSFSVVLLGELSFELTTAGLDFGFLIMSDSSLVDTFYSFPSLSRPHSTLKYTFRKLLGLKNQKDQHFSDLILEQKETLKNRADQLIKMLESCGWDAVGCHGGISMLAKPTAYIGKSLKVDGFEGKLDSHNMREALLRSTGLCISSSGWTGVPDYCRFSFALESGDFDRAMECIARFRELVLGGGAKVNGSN

[1] = biological target: T2, MMT from Arabidopsis thaliana (Arabidopsis thaliana, UniProt Q9LTB2); test: in vitro MMT assay; format: biochemical; details: 1 mM L-methionine, 1 mM S-adenosylmethionine, Tris-HCl 20 mM pH 7.2, DTT 1 mM, 25 °C
T2 construct: gene MMT1; recombinant, probably pMALc2x (MBP fusion), E. coli
T2 sequence (Q9LTB2 2-1071): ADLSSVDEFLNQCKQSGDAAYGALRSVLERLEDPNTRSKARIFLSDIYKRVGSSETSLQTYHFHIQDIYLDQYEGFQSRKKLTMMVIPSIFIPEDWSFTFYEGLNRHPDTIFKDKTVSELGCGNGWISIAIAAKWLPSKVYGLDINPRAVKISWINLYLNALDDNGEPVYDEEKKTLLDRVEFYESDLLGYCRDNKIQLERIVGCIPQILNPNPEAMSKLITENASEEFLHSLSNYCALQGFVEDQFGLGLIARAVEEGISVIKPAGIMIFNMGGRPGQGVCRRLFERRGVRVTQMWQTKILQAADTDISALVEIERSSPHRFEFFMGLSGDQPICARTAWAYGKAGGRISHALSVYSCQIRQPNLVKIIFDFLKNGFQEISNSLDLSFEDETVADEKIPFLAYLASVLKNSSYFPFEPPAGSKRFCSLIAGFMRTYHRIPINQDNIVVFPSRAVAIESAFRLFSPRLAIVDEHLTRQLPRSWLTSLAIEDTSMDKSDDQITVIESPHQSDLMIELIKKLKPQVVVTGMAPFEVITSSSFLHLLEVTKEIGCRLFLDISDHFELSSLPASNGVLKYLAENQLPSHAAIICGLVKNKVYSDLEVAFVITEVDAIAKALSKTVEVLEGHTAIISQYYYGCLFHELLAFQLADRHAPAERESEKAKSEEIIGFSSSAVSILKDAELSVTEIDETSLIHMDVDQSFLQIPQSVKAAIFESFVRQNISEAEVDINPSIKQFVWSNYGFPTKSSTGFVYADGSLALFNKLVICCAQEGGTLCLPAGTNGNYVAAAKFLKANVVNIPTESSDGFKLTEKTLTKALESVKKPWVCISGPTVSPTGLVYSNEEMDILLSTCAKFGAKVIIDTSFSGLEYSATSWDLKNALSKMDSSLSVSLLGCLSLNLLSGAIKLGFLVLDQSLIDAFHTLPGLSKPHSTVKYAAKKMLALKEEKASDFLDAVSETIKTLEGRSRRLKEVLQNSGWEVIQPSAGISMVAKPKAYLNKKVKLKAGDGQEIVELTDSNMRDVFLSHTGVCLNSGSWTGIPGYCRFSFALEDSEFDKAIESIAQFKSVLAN

[2] = substrate: C[S+](C)CC[C@H](N)C(=O)O; test: NMR initial rates of DMSP-amine formation; format: biochemical, Sporobolus anglicus; details: Tris-HCl 20 mM pH 7.2, 0.1 mM pyridoxal 5'-phosphate, 25 °C

## CSCC[C@H](N)C(=O)O [L-methionine]
MMT from Hordeum vulgare
  in vitro MMT assay: plant MMTs from Arabidopsis thaliana and Hordeum vulgare
[1]
  in vitro MMT assay: SaMMT1 in vitro activity was comparable to previously characterised plant MMTs from Arabidopsis thaliana

B1: SaSDC (SaODC), S-methylmethionine decarboxylase (Sporobolus anglicus) (protein)
chain: MVGGSPMPMQAMLVVPGVKDRKVLSFKGDALKENDAIRSITSSTPAQRSAFHVLDLAKVVDLYRAWRRALPNVRPYYAVKCNSEPALLGALAALGAGFDCASHAEIDAVLALGVHPSSIVYANPCKPESHLEHAAAAGVNLTTYDSEEEVAKVRRCHPRCELLLRIKGPDDEEAQCDLGIKYGALADEVVPLLRAAQRAGVPVAGVAFNVGSPASRMDLYRDAIEAARAAFDAAAGLGMPPMRVLDIGGGFTAGATFEEAAAVINDALARHFGDLPYVEVISEPGRYFVKKAITLAARVIGKRTRGEVREYWIDDGVYGSFNCVIMDHYKPRPRPLVTPRPGEAKYTSTVFGPTCDSQDMVVTGYKLPEMSVGDWLVFDDMGAYTTAAGSKFNGFDTSDIKIYLAYST
notes: full-length ORF from transcriptome, synthetic gene, pMALc2x (MBP fusion), E. coli BL21(DE3), amylose resin
[2]
  Km: 2130 ± 200 µM
